This assay has as its system RAW264.7. The assay can be described thus: Concentration of compound which increased the nitrite production in RAW 264.7 mouse monocyte-macrophage line. Type of assay: functional, cell-based.

Compound `CC(=O)N[C@@H]1[C@@H](OC(C)C(=O)N[C@@H](C)C(=O)N[C@H](CCC(=O)N[C@@H](C)C(=O)O[C@H]2CC[C@@]3(C)C(=CC[C@H]4[C@@H]5CC[C@H]([C@H](C)CCCC(C)C)[C@@]5(C)CC[C@@H]43)C2)C(N)=O)[C@H](O)[C@@H](CO)O[C@@H]1O` (stereo partly specified) registered a Concentration of 1 µM.
